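Tested at 5 concentrations; 48 h exposure; 96-well plates; endpoints linearly interpolated, else capped at highest concentration. Abbreviation: GI50, concentration required for 50% inhibition of growth. TGI: concentration producing complete growth inhibition.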
How the values were obtained:
Experiment in all cases: NCI-60 cell line screen, 48 h
SN12C renal = tested on: SN12C renal
M14 melanoma = tested on: M14 melanoma
U251 CNS = tested on: U251 CNS
SK-OV-3 ovarian = tested on: SK-OV-3 ovarian
IGROV1 ovarian = tested on: IGROV1 ovarian
MOLT-4 leukemia = tested on: MOLT-4 leukemia
UACC-62 melanoma = tested on: UACC-62 melanoma
OVCAR-3 ovarian = tested on: OVCAR-3 ovarian
COLO 205 colon = tested on: COLO 205 colon
OVCAR-5 ovarian = tested on: OVCAR-5 ovarian

Structure (SMILES)	TGI (SN12C renal)	TGI (M14 melanoma)	TGI (U251 CNS)	TGI (SK-OV-3 ovarian)	TGI (IGROV1 ovarian)	TGI (MOLT-4 leukemia)	TGI (UACC-62 melanoma)	TGI (OVCAR-3 ovarian)	TGI (COLO 205 colon)	TGI (OVCAR-5 ovarian)	GI50 (IGROV1 ovarian)	GI50 (UACC-62 melanoma)
O=C1/C(=C/c2ccccc2)CCCC/C1=C\c1ccccc1	> 100 µM	> 100 µM	> 100 µM	> 100 µM	> 100 µM	> 100 µM	> 100 µM	> 100 µM	> 100 µM	97.1 µM		
COc1ccc(-n2cnc3c(NC(C)(C)C(=O)O)ncnc32)cc1	> 100 µM	> 100 µM	> 100 µM	> 100 µM	> 100 µM	> 100 µM	> 100 µM	> 100 µM	> 100 µM	> 100 µM		
CCOC(=O)c1c(-c2ccccc2)[nH]c2ccc(Cl)cc2c1=O	> 100 µM	> 100 µM	> 100 µM	> 100 µM	> 100 µM	> 100 µM	> 100 µM	38.9 µM	> 100 µM	> 100 µM		
COc1ccc2c(c1)/C(=C\c1cccc(/C=C3/C(=O)Nc4ccc(OC)cc43)n1)C(=O)N2	4.91 µM	3.22 µM	5.83 µM	17.3 µM	> 100 µM	0.802 µM	2.28 µM	5.38 µM	2.04 µM	3.74 µM	2.2 µM	0.703 µM
O=C(O)CCSc1nnc(COc2ccc(Cl)cc2)n1-c1ccccc1	> 100 µM	> 100 µM	> 100 µM	> 100 µM	> 100 µM	> 100 µM	> 100 µM	> 100 µM	> 100 µM	> 100 µM		
O=C1c2cccnc2C(=O)c2c1nc1ccccc1c2-c1cncc(-c2c3c(nc4ccccc24)C(=O)c2cccnc2C3=O)c1	0.613 µM	0.576 µM	1.22 µM	2.1 µM	0.286 µM	0.788 µM	1.09 µM	3.22 µM	0.617 µM	5.9 µM		
O=C(/C=C/c1ccccc1)CCC1C(=O)NC(=O)NC1=O	> 100 µM	> 100 µM	> 100 µM	> 100 µM	> 100 µM	> 100 µM	> 100 µM	> 100 µM	> 100 µM	> 100 µM		
COC(=O)c1cc(C#N)[nH]c1-c1cccs1	> 100 µM	> 100 µM	> 100 µM	> 100 µM		> 100 µM	> 100 µM	> 100 µM	> 100 µM	> 100 µM		
COC(=O)N/N=C(\C)C(CN1CCOCC1)C(c1ccccc1)c1cc2ccccc2oc1=O (configuration not stated)	> 100 µM	> 100 µM	> 100 µM	> 100 µM	> 100 µM	> 100 µM	> 100 µM	> 100 µM	> 100 µM	> 100 µM		
COc1cc(C2S/C(=C/c3ccccc3)C(=O)N2c2ccc([N+](=O)[O-])cc2)cc(OC)c1OC (configuration not stated)	> 100 µM	> 100 µM	> 100 µM	> 100 µM	> 83.5 µM	> 100 µM	> 100 µM	> 100 µM	> 100 µM	> 100 µM		
CCOC(=O)/C(=C\NC(C)(C)C)c1nc2ccccc2o1	> 100 µM	> 100 µM		> 100 µM	> 100 µM		50.6 µM	> 100 µM	55.3 µM	> 100 µM		
CN(C)CCN1C(=O)c2ccccc2C1(O)c1ccc(Cl)cc1 (configuration not stated)	> 100 µM	> 100 µM	> 100 µM	> 100 µM	> 100 µM	> 100 µM	> 100 µM	> 100 µM	> 100 µM	> 100 µM		
CCOC(=O)Oc1cc2c(ccn2C)c2c1c1ccccc1n2C(=O)OCC	> 100 µM	> 100 µM	> 100 µM	> 100 µM	> 100 µM	> 100 µM	> 100 µM	> 100 µM	> 100 µM	> 100 µM		
CCOC(=O)c1c(NC(=O)c2ccc(OC)cc2)sc2c1CCCC2	> 100 µM	> 100 µM	> 100 µM		> 100 µM	> 100 µM	> 100 µM	> 100 µM	> 100 µM	> 100 µM		
Cc1ccc(S(=O)(=O)n2cnc(CC(NC(=O)C3CCC(=O)N3C(=O)OCc3ccccc3)C(=O)N3CCCC3C(=O)NN)c2)cc1 (configuration not stated)	> 100 µM	> 100 µM	> 100 µM		> 100 µM	> 100 µM			> 100 µM	> 100 µM		
COC(=O)/C(=C/CC(N=C(c1ccccc1)c1ccccc1)C(=O)OC)N=C(c1ccccc1)c1ccccc1 (configuration not stated)	> 100 µM	> 100 µM	> 100 µM	> 100 µM	> 100 µM	> 100 µM	> 100 µM	> 100 µM	> 100 µM			
CC1(C)OC(=O)CC12CCN(Cc1ccccc1)CC2	> 100 µM		> 100 µM	> 100 µM	> 100 µM	> 100 µM	> 100 µM	> 100 µM	> 100 µM	> 100 µM		

Structure (SMILES)	TGI (SN12C renal)	TGI (M14 melanoma)	TGI (U251 CNS)	TGI (SK-OV-3 ovarian)	TGI (IGROV1 ovarian)	TGI (MOLT-4 leukemia)	TGI (UACC-62 melanoma)	TGI (OVCAR-3 ovarian)	TGI (COLO 205 colon)	TGI (OVCAR-5 ovarian)	GI50 (IGROV1 ovarian)	GI50 (UACC-62 melanoma)
O=c1[nH]c2ccsc2c(=O)n1COCc1ccccc1	> 100 µM	> 100 µM	> 100 µM		> 100 µM	> 100 µM		> 100 µM	> 100 µM	> 100 µM		
O=C(NN1C(=O)c2ccccc2C1=O)c1ccccc1Nc1ccccc1C(=O)NN1C(=O)c2ccccc2C1=O	> 100 µM	> 100 µM	> 100 µM		> 100 µM	> 100 µM	> 100 µM	> 100 µM	> 100 µM	> 100 µM		
C=CC(c1ccccc1)C1(O)c2cccc(O)c2C(=O)c2c(O)cccc21 (configuration not stated)		34.5 µM	24.5 µM		32.6 µM	46.8 µM		38.9 µM		54.2 µM		
Cc1cc2nc3c(C#N)c(-c4ccccc4)cc(Nc4ccc(F)cc4)n3c2cc1C	53.7 µM		16.3 µM	69.9 µM		> 100 µM		46.4 µM	> 100 µM	45.2 µM		
NC(=S)N/N=C(/C(=O)Nc1nc2ccc([N+](=O)[O-])cc2s1)C1C(=O)NC(=S)NC1=O	> 100 µM	> 100 µM	> 100 µM	> 100 µM		> 100 µM	> 100 µM	> 100 µM	> 100 µM	> 100 µM		
CNC(=S)NNC1=NCCCCN1		> 100 µM	> 100 µM	> 100 µM	> 100 µM	> 100 µM	> 100 µM	> 100 µM	> 100 µM	> 100 µM		
CC(CCC(=O)O)[C@H]1CCC2[C@H]3C(CC(=O)[C@@]21C)[C@@]1(C)CCC(O)C[C@H]1C[C@@H]3O (some centres not stated)	> 100 µM	> 100 µM	> 100 µM		> 100 µM	> 100 µM	> 100 µM		> 100 µM	> 100 µM		
COc1cc(-c2c(C)c(C)nc(OC)c2C#N)cc(OC)c1OC	> 100 µM	> 100 µM	> 100 µM	> 100 µM	> 100 µM	> 100 µM	> 100 µM	> 100 µM	> 100 µM			
CC(C)N(c1cc2c(cc1F)c(=O)c(C(=O)O)cn2-c1ccc(N2CCN(C)CC2)cn1)C(C)C	> 100 µM	> 100 µM	> 100 µM	> 100 µM	> 100 µM	> 100 µM		> 100 µM	> 100 µM	> 100 µM		
COc1cc(CCCC(O)COc2cccc3c2C2(O)CCCCCC32)cc(OC)c1 (configuration not stated)	31.8 µM	35.7 µM	32.9 µM	38.5 µM	28.5 µM	48.2 µM	30.6 µM		5.4 µM	31.5 µM		
O=S1(=O)OCCCOS(=O)(=O)C1Br	> 100 µM	> 100 µM	> 100 µM	> 100 µM		> 100 µM	> 100 µM	> 100 µM	> 100 µM	> 100 µM		
CN1CCN(C(=S)N(C)C(=O)c2cccs2)CC1	> 100 µM	> 100 µM	> 100 µM		> 100 µM	> 100 µM	> 100 µM	> 100 µM	> 100 µM	> 100 µM		
O=C(Nc1ccccc1)C(=O)C(C(=O)c1ccccc1)C(c1ccccc1)c1ccccc1 (configuration not stated)	> 10 µM	> 10 µM		> 10 µM	> 10 µM	> 10 µM	> 10 µM		> 10 µM			
NC(=O)NC(=O)c1ccc(NC(=O)CBr)cc1	1.18 µM		2.25 µM	9.49 µM	4.78 µM	2.61 µM	4.03 µM	2.74 µM	2.99 µM	7.34 µM		
C/C(=C/CNc1ncnc2c1ncn2CCC#N)CO	> 100 µM	> 100 µM		> 100 µM	> 100 µM	> 100 µM	> 100 µM	> 100 µM	> 100 µM	> 100 µM		
COC(=O)/C(C#N)=C(\Nc1ccccc1)N1CCCCC1	> 100 µM	> 100 µM	> 100 µM	> 100 µM	> 100 µM	> 100 µM		> 100 µM	> 100 µM	> 100 µM		
COc1ccc(-c2cc(-c3ccco3)c(C#N)c(=S)n2C2OC(CO)C(O)C(O)C2O)cc1 (configuration not stated)	> 100 µM	> 100 µM	> 100 µM	> 100 µM	> 100 µM	> 100 µM		> 100 µM	> 100 µM	> 100 µM		
